Assay results from publication PMC5622079, “Control of leucine-dependent mTORC1 pathway through chemical intervention of leucyl-tRNA synthetase and RagD interaction” (Nature Communications, 2017).

What was measured:
[1] = target: T1, Leucyl-tRNA synthetase (LRS) (Homo sapiens, UniProt Q9P2J5); assay: SPR (Biacore T-200, immobilised His-LRS); type: binding; parameters: gene LARS1; His-LRS WT
[2] = target: T1, Leucyl-tRNA synthetase (LRS); assay: HDX-MS (with BC-LI-0198) and thermal shift; type: binding; parameters: gene LARS1; human full-length LRS, N-terminal His9-tag

T1 sequence (Q9P2J5 whole entry): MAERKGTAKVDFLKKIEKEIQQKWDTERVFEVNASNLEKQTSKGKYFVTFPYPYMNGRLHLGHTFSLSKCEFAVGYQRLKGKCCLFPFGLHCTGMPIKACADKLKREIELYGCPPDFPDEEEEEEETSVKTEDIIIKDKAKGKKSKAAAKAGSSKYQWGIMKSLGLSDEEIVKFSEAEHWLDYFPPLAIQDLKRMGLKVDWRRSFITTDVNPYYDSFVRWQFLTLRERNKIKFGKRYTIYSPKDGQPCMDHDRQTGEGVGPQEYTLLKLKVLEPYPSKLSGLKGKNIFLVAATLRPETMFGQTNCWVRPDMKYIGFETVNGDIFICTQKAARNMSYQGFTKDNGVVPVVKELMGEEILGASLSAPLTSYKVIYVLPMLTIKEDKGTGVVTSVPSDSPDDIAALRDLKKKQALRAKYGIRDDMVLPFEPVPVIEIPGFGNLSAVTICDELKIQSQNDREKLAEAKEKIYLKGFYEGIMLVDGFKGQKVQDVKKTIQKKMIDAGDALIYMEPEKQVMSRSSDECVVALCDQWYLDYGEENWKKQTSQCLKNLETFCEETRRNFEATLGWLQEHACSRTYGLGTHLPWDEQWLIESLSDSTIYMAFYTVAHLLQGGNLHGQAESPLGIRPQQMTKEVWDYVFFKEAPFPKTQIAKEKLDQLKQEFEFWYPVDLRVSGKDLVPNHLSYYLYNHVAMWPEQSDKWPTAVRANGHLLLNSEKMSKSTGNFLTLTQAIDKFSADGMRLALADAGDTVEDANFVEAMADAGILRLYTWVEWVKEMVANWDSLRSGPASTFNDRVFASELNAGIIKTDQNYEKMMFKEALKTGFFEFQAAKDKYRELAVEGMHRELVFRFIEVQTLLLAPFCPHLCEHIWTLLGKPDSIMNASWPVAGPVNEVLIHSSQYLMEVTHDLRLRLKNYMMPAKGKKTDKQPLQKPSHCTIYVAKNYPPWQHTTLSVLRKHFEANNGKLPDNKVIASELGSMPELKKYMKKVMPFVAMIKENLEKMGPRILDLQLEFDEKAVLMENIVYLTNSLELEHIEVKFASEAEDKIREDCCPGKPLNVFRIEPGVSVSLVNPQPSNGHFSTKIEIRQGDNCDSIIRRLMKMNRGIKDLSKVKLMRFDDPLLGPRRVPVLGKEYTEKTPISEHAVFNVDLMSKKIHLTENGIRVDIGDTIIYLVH

Kd [1]	Structure (SMILES)	HDX-MS (with BC-LI-0198) and thermal shift [2]
42.1 nM	Cc1c(C(C)C)c(=O)n(-c2ccc(S(=O)(=O)NCCOc3ccccc3)cc2)n1C [BC-LI-0186]	
	CC(C)C[C@H](N)C(=O)NS(=O)(=O)OC[C@H]1O[C@@H](n2cnc3c(N)ncnc32)[C@H](O)[C@@H]1O [Leu-AMS]	HDX)-MS assays for LRS bound to BC-LI-0198 and Leu-AMS, a leucyl-sulfamoyl-adenylate analog of leucyl adenylate
